# Key:
# [1] = tested on: Bax, Bcl-2, caspase 9, and caspase 3; assay type: cell-based, human
# [2] = tested on: CDK2, CDK4, CDK6, cyclin D1 and cyclin E1; assay type: cell-based, human
# caspase 3 = test: Caspase 3 activity in cell lysates; assay type: cell-based, human; conditions: HepG2 cell lysates, 48 h
# Protocol: (§1) The activities of caspase 9 and caspase 3 in the cell lysates were evaluated as described previously. The harvested HepG2 cells treated with varying concentrations of 14f for 48 h were lysed using chilled 100 µL lysis buffer, to extract the total protein. The protein concentration was assessed using a Bradford Kit. The protein samples were incubated with assay buffer and colorimetric substrate (Ac-DEVD-pNA or Ac-LEHD-pNA) at room temperature for 2 h, according to the manufacturer’s protocol. The released pNAs were measured at the wavelength of 405 nm using a Multiskan® Spectrum system. The experiments were performed in triplicate.
# GES-1 cells = test: MTT cytotoxicity assay, normal GES-1; assay type: cell-based, human
# Bax and Bcl-2 = test: Western blot of Bax and Bcl-2; assay type: cell-based, human; conditions: HepG2 cells, 48 h
# Protocol: (§2) To analyse the effect of compound 14f on protein levels, western blot assay was employed, as elaborated previously. The proteins were acquired by collecting HepG2 cells treated with varying concentrations of 14f for 48 h and adding them to lysis buffer, in an ice bath for 30 min. After quantitation of protein concentration using BCA assay, equal amounts of total protein were separated using 10% sodium dodecyl sulphate-polyacrylamide gel electrophoresis and then transferred onto polyvinylidene fluoride membranes. The membranes were incubated with 5% bovine serum albumin solution for 1.5 h at 37 °C, followed by incubation with primary antibody overnight, and finally secondary antibody for 2 h at 37 °C. The blots were detected using enhanced chemiluminescence reagent with a fully automatic gel imaging system (ChemiDoc™ MP, Bio-Rad). The relative expression was calculated by normalising the expression of the control group to 1 for comparison.
# HepG2 cells [3] = test: MTT anti-proliferative assay, HepG2; assay type: cell-based, human
# [4] = tested on: CDK2, CDK4, CDK6, cyclin D1, and cyclin E1; test: Western blot of G0/G1 phase-related proteins; assay type: cell-based, human; conditions: HepG2 cells, 48 h
# Protocol: as §2
# HepG2 cells [5] = test: Apoptosis by flow cytometry (Annexin V-FITC/PI); assay type: cell-based, human; conditions: 48 h
# Protocol: Briefly, HepG2 cells were incubated in 6-well plates for 24 h, and then treated with 14f (0, 5, 10, and 20 µM) for 48 h. Following that, the cells were washed once with pre-cold PBS, re-suspended in 300 µL of buffer solution, and stained with 10 µL of Annexin V-FITC and 5 µL of PI staining solution, under the conditions of 37 °C and absence of any light source, for 10 min. Finally, the samples were immediately measured using a flow cytometer. The percentages of apoptotic cells were determined on the CellQuest™ software (BD Biosciences).
# HepG2 cells [6] = test: Hoechst 33342/PI staining, cell morphology; assay type: cell-based, human; conditions: HepG2, 5, 10 and 20 μM, 48 h
# Protocol: First, HepG2 cells were plated into 6-well plates, at a density of 1 × 10^6 cells/well. Thereafter, 14f (0, 5, 10, and 20 µM) was added to the cells and they were incubated with it for 48 h; 0.1% DMSO was used as a vehicle control. The cellular morphology was then observed and photographed using a light microscope (Olympus, 1 × 51, Japan). Next, HepG2 cells were incubated with 14f (0, 5, 10, and 20 µM) for 48 h, after which the cells were collected and stained with a mixture of Hoechst 33342 and PI in buffer solution, for 20 min at room temperature. Finally, the cell samples were studied and photographed under a fluorescence microscope (Obeserve.A1, Zeiss, Germany).
# HeLa cells = test: MTT anti-proliferative assay, HeLa; assay type: cell-based; conditions: Homo sapiens, 48 h, read-out: IC50 HeLa
# HepG2 cells [7] = test: Flow cytometric analysis of cell cycle distribution (PI); assay type: cell-based, human; conditions: 24 h
# Protocol: HepG2 cells were seeded into 6-well plates and allowed to grow for a period of 12 h. After incubation with different concentrations of 14f (0, 5, 10, and 20 µM) for 24 h, the cells were trypsinized, washed with phosphate-buffered saline (PBS), and fixed in 1.5 ml of 75% ethanol for the night, at 4 °C, following which RNase and propidium iodide (PI) (Multi Sciences Biotech Co. Ltd.) were added to the cells. The cell cycle distribution and data processing were analysed using a flow cytometer (FACSCalibur™, BD Biosciences, USA).
# MCF-7 cells = test: MTT anti-proliferative assay, MCF-7; assay type: cell-based, human
# caspase 9 = test: Caspase 9 activity in cell lysates; assay type: cell-based, human; conditions: HepG2 cell lysates, 48 h
# Protocol: as §1
# HepG2 cells [8] = test: Mitochondrial membrane potential (JC-1, flow cytometry); assay type: cell-based, human; conditions: 48 h (lower quadrant value)
# Protocol: HepG2 cells were plated into 6-well plates for 12 h. Following treatment with varying concentrations of 14f for 48 h, the cells were incubated with JC-1 dyeing working solution for 0.5 h at room temperature, then washed with staining buffer 3 times and re-suspended in 300 µL of staining buffer. The cells were finally assessed and analysed using a flow cytometer (FACSCalibur™).
compound,measurement,setting,value
"CC(=O)OC1CCC2(C)C(=CCC3C2CCC2(C)C3CC3OC(CCC(C)C(=O)N4CCCN(C(=O)c5ccc(N(CCCl)CCCl)cc5)CC4)C(C)C32)C1 [Compound 14f, (22 R,25R)-(4–(1-homopiperazinyl)-4-(bis(2-chloroethyl)amino)benzamido)-3β-acetoxy-5-en-furostan-26-amide]","gene expression of Bax, caspase 9, and caspase 3",[1],high gene expression
same,gene expression of Bcl-2,[1],suppressed
same,"genes levels of CDK2, CDK4, CDK6, cyclin D1 and cyclin E1",[2],decreased
same,enzyme activity of caspase 3,caspase 3,upregulated
same,SI,GES-1 cells,>44.25
same,IC50,"GES-1 cells; Homo sapiens, GES1, 48 h, read-out: IC50 GES-1",> 100 µM
same,protein levels of Bax,Bax and Bcl-2,upregulated
same,protein levels of Bcl-2,Bax and Bcl-2,downregulation
same,potency fold higher than that of Mitomycin C,HepG2 cells [3],14.4 fold
same,IC50,"HepG2 cells [3]; Homo sapiens, HepG2, 48 h, read-out: IC50 HepG2",2.26 ± 0.87 µM
same,"expression levels of CDK2, CDK4, CDK6, cyclin D1, and cyclin E1 proteins",[4],concentration-dependently downregulate
same,apoptotic cells,"HepG2 cells [5]; HepG2, 14f 5 μM",9.80%
same,apoptotic cells,"HepG2 cells [5]; HepG2, 14f 10 μM",14.38%
same,apoptotic cells,"HepG2 cells [5]; HepG2, 14f 20 μM",28.13%
same,apoptosis seen by Hoechst 33342/PI staining,HepG2 cells [6],increase in the apoptosis of HepG2 cells
same,IC50,HeLa cells,41.6 ± 3.12 µM
same,effect on the cell cycle,"HepG2 cells [7]; HepG2, 5, 10 and 20 µM",arrested the cell cycle at the G0/G1 phase
same,cells in G0/G1 phase,"HepG2 cells [7]; HepG2, 14f 5 μM",33.76%
same,cells in G0/G1 phase,"HepG2 cells [7]; HepG2, 14f 10 μM",40.38%
same,cells in G0/G1 phase,"HepG2 cells [7]; HepG2, 14f 20 μM",46.40%
same,fold more active than DSG,MCF-7 cells,about 1.7 fold
same,IC50,"MCF-7 cells; Homo sapiens, MCF7, 48 h, read-out: IC50 MCF-7",11.1 ± 1.01 µM
same,enzyme activity of caspase 9,caspase 9,upregulated
same,percentage of mitochondrial depolarisation,"HepG2 cells [8]; HepG2, JC-1, 14f 5 µM",7.90%
same,percentage of mitochondrial depolarisation,"HepG2 cells [8]; HepG2, JC-1, 14f 10 µM",15.55%
same,percentage of mitochondrial depolarisation,"HepG2 cells [8]; HepG2, JC-1, 14f 20 µM",40.46%

# Reference: publication PMC9176691, “Design, synthesis and biological evaluation of novel diosgenin–benzoic acid mustard hybrids with potential anti-proliferative activities in human hepatoma HepG2 cells” (Journal of Enzyme Inhibition and Medicinal Chemistry, 2022)
